Results reported in patent US20090136460A1 (VANDERBILT UNIVERSITY, priority 2007, published 2009).
Where two headings read alike, the source gives them in different places. Blank lines part the entries; values can stand above or below the compound they belong to.

Assays:
A2B adenosine receptor [1] = details: [15] Martin et al. (1993); NECA-stimulated atrium (A1) or aorta (A2A); cited from earlier work
A2A adenosine receptor [2] = molecular target: T1, A2A adenosine receptor (Mus musculus, UniProt Q60612); test: Potency at mouse receptor, current study, in A2A of Table 1; assay type: cell-based; details: data from the current study (no reference)
T1 construct: from tissue; host or cells: isolated perfused C57Bl/6 mouse heart (my inference)
T1 sequence (Q60612 1-326): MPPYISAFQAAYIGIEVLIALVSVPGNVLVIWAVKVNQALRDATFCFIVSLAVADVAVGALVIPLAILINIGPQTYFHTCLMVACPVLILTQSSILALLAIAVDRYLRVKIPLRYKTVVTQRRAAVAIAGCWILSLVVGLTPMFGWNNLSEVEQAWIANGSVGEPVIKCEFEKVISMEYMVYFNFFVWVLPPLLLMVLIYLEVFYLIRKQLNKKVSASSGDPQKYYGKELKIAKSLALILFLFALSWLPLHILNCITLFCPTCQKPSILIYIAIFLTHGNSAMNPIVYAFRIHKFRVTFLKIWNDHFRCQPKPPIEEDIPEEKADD
Source text: Measurement of cAMP accumulation.

[3] = tested on: eEPC adhesion to MCEC-1 cells; test: eEPC adhesion to MCEC-1 cells under static conditions; assay type: cell-based, mouse; details: for IC50: read-out: IC50, inhibition of NECA-induced eEPC adhesion
A1 receptors = molecular target: T2, A1 receptors (Mus musculus, UniProt Q60612); test: Inhibition of forskolin-stimulated cAMP accumulation in mouse eEPCs; details: read-out: EC50, antagonism of the action of CPA on forskolin-stimulated cAMP accumulation; eEPCs; 10 nmol/L CPA; 1 μmol/L forskolin
T2 sequence (Q60612 1-326): T1 sequence (Q60612 1-326)

A2B receptors = molecular target: T3, A2B receptors (Mus musculus, UniProt Q60614); test: NECA-stimulated cAMP accumulation in MCEC-1 cells; details: data from the current study (no reference); for Affinity or potency (Ki, KD, KB, IC50 or EC50) at A2B, mouse (m), current study: 95% CI in parentheses
T3 sequence (Q60614 1-332): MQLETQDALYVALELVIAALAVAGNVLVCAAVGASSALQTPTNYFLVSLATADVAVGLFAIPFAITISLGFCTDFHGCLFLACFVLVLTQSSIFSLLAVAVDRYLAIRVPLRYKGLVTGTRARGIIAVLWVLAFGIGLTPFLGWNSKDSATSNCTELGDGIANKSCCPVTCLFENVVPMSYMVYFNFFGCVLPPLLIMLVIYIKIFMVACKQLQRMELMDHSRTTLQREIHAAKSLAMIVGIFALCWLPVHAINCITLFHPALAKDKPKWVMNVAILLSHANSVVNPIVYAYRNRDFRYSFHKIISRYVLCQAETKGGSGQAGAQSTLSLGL

A2A adenosine receptor [4] = molecular target: A2A adenosine receptor (Cavia porcellus, UniProt P46616); details: [15] Martin et al. (1993); NECA-stimulated atrium (A1) or aorta (A2A); cited from earlier work
A2A adenosine receptor (Cavia porcellus, UniProt P46616), sequence (P46616 whole entry): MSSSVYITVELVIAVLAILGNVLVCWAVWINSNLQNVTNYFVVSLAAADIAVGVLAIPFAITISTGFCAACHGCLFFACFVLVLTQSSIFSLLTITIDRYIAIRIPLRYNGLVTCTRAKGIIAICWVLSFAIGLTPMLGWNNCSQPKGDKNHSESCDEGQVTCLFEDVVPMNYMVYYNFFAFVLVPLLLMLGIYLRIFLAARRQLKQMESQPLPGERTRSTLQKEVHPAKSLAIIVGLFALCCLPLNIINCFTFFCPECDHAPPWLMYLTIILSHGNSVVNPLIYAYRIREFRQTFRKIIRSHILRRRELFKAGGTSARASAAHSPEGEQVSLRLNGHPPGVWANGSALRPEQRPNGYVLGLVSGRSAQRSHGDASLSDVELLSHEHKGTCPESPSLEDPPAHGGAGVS

[5] = tested on: eEPC adhesion to MCEC-1 cells; test: eEPC adhesion to MCEC-1 cells under flow conditions; assay type: cell-based, mouse; details: 10 μmol/L; shear stress 0.75 and 1 dyne/cm^2; 10 minutes
Experimental: Analysis of cell adhesion under flow conditions. Adhesion assays under flow conditions were performed using a parallel plate flow chamber (Glycotech, Rockville, Md.) following the manufacturer's instructions. Cell suspension or cell-free medium were drown into chambers by a syringe pump (Model 44, Harvard Apparatus, Inc., Holliston, Mass.) at a constant rate to generate a desired wall shear stress (τ, dynes/cm2) using the formula τ=6Qμ/a^2b, where Q is flow rate, μ is medium viscosity, b is channel width, and a is channel height. […] Cell adhesion was determined by analysis of digitized video recordings using NIH Image software. Cell-based P-selectin enzyme-linked immunoassay To analyze cell-surface P-selectin expression, the inventors used a previously published method (Cleator et al., 2005). […] After washing and blocking, cells were incubated with 5 μg/mL rat anti-mouse CD62P antibodies (Fitzgerald Industries) or rat isotype-matched control antibody (BD Biosciences) for 1 hour. After washing, a secondary goat anti-rat horseradish peroxidase-conjugated antibody (Jackson ImmunoResearch, West Grove, Pa.) was added for 1 hour followed by washing and then analyzed at […] after addition of substrate.

[6] = tested on: CE-EPC adhesion to HMVEC-c cells; test: Adhesion of human culture-expanded EPCs (CE-EPCs) to HMVEC-c cells; details: increasing concentrations
eEPCs = test: cAMP accumulation in mouse eEPCs (forskolin, NECA); details: FIG. 1B
HMVEC-c cells = test: cAMP accumulation in HMVEC-c cells; assay type: cell-based, human
Source text: Primary cultures of human cardiac microvascular endothelial cells (HMVEC-c) were obtained from Cambrex (Walkersville, Md.), and cultured using EGM™-2 MV growth medium (Cambrex). HMVEC-c from passages 2 to 5 were used. Measurement of cAMP accumulation.

A2A adenosine receptor [7] = molecular target: A2A adenosine receptor (Mus musculus, UniProt Q60613); details: [13] Lopes et al. (2004), striatum, radioligand [3H]SCH58261, cited from earlier work
A2A adenosine receptor (Mus musculus, UniProt Q60613), sequence (Q60613 whole entry): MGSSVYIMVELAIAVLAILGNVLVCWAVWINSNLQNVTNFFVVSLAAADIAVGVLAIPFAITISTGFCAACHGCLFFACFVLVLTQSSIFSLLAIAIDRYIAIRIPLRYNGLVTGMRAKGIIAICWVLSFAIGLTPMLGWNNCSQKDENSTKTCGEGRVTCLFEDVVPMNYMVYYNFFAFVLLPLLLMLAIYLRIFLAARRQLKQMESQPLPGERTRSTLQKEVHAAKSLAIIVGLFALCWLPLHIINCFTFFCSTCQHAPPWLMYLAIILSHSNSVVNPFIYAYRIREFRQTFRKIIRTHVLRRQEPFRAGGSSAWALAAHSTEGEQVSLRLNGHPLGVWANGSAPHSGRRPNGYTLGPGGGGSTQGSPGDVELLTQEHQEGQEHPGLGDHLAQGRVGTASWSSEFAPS

A2B adenosine receptor [8] = molecular target: T4, A2B adenosine receptor (Homo sapiens, UniProt P29275); details: [11] Feoktistov and Biaggioni (1998); NECA-stimulated HEL cells; cited from earlier work
T4 sequence (P29275 1-332): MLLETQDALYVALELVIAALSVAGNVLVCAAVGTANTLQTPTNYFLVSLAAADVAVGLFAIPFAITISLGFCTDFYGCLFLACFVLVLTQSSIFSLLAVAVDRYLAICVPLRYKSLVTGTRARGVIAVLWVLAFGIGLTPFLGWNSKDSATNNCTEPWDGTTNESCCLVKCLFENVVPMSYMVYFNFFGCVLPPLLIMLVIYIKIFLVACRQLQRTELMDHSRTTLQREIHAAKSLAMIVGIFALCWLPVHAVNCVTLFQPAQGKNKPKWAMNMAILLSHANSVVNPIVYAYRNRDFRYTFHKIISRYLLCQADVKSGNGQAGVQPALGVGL

A2A adenosine receptor [9] = molecular target: A2A adenosine receptor (Rattus norvegicus, UniProt P30543); details: cited from earlier work
A2A adenosine receptor (Rattus norvegicus, UniProt P30543), sequence (P30543 whole entry): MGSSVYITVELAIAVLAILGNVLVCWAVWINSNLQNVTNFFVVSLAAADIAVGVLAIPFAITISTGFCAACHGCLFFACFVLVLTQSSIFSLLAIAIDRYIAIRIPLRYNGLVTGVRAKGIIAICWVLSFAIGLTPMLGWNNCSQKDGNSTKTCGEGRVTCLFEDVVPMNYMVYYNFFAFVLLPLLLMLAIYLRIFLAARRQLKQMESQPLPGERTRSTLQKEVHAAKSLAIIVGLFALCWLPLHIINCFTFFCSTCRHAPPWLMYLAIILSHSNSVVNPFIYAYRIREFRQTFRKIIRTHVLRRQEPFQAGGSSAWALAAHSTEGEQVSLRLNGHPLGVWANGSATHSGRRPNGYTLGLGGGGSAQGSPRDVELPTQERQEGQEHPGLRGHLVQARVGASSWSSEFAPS

- Affinity or potency at A2A, mouse (m), current study, log (A2A adenosine receptor [2]): −6.3 log mol/L
- IC50 ([3]; 1 μmol/L NECA): 1.5 µM
- EC50 (A1 receptors): 0.511 µM
- Affinity or potency at A2B, mouse (m), current study, log (A2B receptors): 65,610); −4.4 log mol/L
- Affinity or potency (Ki, KD, KB, IC50 or EC50) at A2B, mouse (m), current study (A2B receptors): m 39,350 (23,600- nmol/L
Structure (SMILES): Cn1cnc2c(NC3CC4CCC3C4)ncnc21 (stereo not shown) [N-0861]
- Affinity or potency at A2B, guinea pig (gp) (A2B adenosine receptor [1]): gp 56,200 nmol/L
- Affinity or potency at A2B, guinea pig (gp), log (A2B adenosine receptor [1]): (±11,400), −4.3 [15] log mol/L
- Affinity or potency at A2A, guinea pig (gp) (A2A adenosine receptor [4]): 575 (±86) nmol/L
- Affinity or potency at A2A, guinea pig (gp), log (A2A adenosine receptor [4]): 6.2 log mol/L

Structure (SMILES): CCNC(=O)[C@H]1O[C@@H](n2cnc3c(N)ncnc32)[C@H](O)[C@@H]1O [NECA, 5′-N-ethylcarboxamidoadenosine]
- Effect on eEPC adhesion under laminar flow [5]: significantly increased
- Time of half-maximal effect on eEPC adhesion ([3]; 1 μmol/L NECA): 5 min
- EC50 ([3]; Mus musculus, 0.5 h, 30 minutes, read-out: EC50, increase of eEPC adhesion): 0.139 µM
- eEPC adhesion ([3]; maximal, concentration-dependent, 30 minutes, basal 4.5±0.3%): 21.3±1.4%
- Effect on CE-EPC adhesion to HMVEC-c cells [6]: stimulated CE-EPC adhesion
- Effect on cAMP in eEPCs (eEPCs): did not elevate cAMP
- Stimulation of cAMP accumulation (HMVEC-c cells): 5.1±0.1 fold

Structure (SMILES): Nc1nc2c(cnn2CCc2ccccc2)c2nc(-c3ccco3)nn12 [SCH58261, 5-amino-7-(phenylethyl)-2-(2-furyl)-pyrazolo-[4,3-e]-1,2,4-triazolo-[1,5-c]-pyrimidine]
- Affinity or potency at A2A, mouse (m), log (A2A adenosine receptor [7]): −9.0 log mol/L
- Ki (A2A adenosine receptor [7]; read-out: Affinity or potency at A2A, mouse (m)): 0.001 µM
- Affinity or potency at A2B, human (h) (A2B adenosine receptor [8]): > 0.1 µM
- Affinity or potency at A2B, human (h), log (A2B adenosine receptor [8]): > −5 log mol/L
- IC50 ([3]; Mus musculus): 1.7 µM
- Effect on NECA-induced eEPC adhesion at lower concentrations ([3]; concentrations that selectively block A2A receptors, 1 μmol/L NECA): no effect
- Affinity or potency at A2B, mouse (m), current study, log (A2B receptors): 2,486); −5.7 log mol/L
- Affinity or potency (Ki, KD, KB, IC50 or EC50) at A2B, mouse (m), current study (A2B receptors): m 1,868 (1,404- nmol/L
- Affinity or potency at A2A, rat (r), log (A2A adenosine receptor [9]): r 2.3 (2-2.7); −8.6 [12] log mol/L
